Laboratory results: ChEMBL document CHEMBL1132729
Calls of active or inactive are those of the source. The rule behind the calls is not given here.

How the values were obtained:
[1] = molecular target: T1, Lipoprotein lipase (Bos taurus) (UniProt P11151); assay: Percent inhibition of compound against Lipoprotein lipase(LPL) was evaluated; No significant inhibition
T1 sequence (whole entry): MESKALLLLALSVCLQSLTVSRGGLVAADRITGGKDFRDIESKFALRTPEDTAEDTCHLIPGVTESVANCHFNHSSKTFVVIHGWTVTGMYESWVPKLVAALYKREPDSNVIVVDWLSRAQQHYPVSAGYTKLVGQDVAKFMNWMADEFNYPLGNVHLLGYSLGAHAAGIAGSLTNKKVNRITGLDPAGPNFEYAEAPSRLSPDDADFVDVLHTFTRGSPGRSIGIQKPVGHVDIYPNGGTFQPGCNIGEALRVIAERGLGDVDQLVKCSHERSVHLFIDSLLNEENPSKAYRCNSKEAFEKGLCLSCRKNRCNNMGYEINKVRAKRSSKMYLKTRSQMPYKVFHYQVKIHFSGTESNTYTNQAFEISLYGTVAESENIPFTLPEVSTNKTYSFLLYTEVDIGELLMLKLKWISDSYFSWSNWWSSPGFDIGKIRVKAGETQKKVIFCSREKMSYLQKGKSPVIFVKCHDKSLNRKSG

[2] = molecular target: T1, Lipoprotein lipase (Bos taurus); assay: Percent inhibition of compound against Lipoprotein lipase(LPL) at 10 uM was evaluated
[3] = molecular target: T1, Lipoprotein lipase (Bos taurus); assay: Percent inhibition of compound against Lipoprotein lipase(LPL) at 3h was evaluated; conditions: concentration not given here

Compound	inhibition [1]	inhibition [2]	inhibition [3]
CCCCCCCCCCCCS(=O)(=O)F	inactive		
CCCCCCS(=O)(=O)Oc1ccc([N+](=O)[O-])cc1	No inhibition		
CCCCCCS(=O)(=O)ON1C(=O)CCC1=O	No inhibition		
CCCCCCCCCCCCCCCCS(=O)(=O)F		50%	90%
